The target of this assay is T1, cyclin D1/cdk 4 enzyme (Homo sapiens, UniProt P11802).
T1 construct: made in house; host or cells: Sf9 insect cells, recombinant baculovirus
As to the kind of experiment: CDK4 ELISA kinase assay (phospho-Rb ser 795 detection). The class given is biochemical. The settings on record: In Vitro Enzyme Assay, cyclin D1/cdk 4, read-out: CDK4 IC50. The method, boiled down: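 Partially purified Sf9-expressed cyclin D1/CDK4, cyclin E/CDK2 or cyclin B/CDK1 phosphorylated plate-bound GST-Rb C-terminal fragment with 200 μM ATP at 30° C for 1 h.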
(In general: ELISA stands for enzyme-linked immunosorbent assay.)

T1 sequence (P11802 whole entry, species assumed): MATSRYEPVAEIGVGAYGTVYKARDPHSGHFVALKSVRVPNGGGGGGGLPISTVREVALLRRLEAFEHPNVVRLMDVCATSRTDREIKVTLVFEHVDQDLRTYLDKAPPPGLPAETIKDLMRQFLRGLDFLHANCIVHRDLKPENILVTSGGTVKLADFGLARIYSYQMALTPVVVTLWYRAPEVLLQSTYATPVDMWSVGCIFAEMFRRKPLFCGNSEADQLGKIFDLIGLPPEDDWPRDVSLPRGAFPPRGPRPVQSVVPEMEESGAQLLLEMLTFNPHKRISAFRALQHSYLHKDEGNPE
T1 sequence (P24385 whole entry partner, species assumed): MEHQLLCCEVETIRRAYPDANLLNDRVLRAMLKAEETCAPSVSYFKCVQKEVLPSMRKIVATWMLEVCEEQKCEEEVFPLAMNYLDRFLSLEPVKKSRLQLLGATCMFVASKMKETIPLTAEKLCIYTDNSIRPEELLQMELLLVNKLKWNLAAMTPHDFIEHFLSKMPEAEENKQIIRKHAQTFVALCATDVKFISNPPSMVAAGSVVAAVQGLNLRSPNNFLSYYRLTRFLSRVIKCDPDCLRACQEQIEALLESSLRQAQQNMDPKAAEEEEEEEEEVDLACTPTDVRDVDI

Usually IC50 stands for the midpoint of a concentration-inhibition curve. As to `CN1CCN(c2ccc(NC=C3C(=O)NC(=O)c4ccc(-c5cccc(Cl)c5)cc43)cc2)CC1` [Example 690, 6-(3-Chloro-phenyl)-4-{[4-(4-methyl-piperazin-1-yl)-phenylamino]-methylene}-4H-isoquinoline-1,3-dione], the IC50 came to 20.7 µM. Take `Cc1ccc(-c2ccc3c(c2)C(=CNc2ccc(N4CCN(C)CC4)cc2)C(=O)NC3=O)cc1` [Example 692, 4-{[4-(4-Methyl-piperazin-1-yl)-phenylamino]-methylene}-6-p-tolyl-4H-isoquinoline-1,3-dione]: the IC50 was 30.7 µM. Regarding `Cc1cccc(-c2ccc3c(c2)C(=CNc2ccc(N4CCN(C)CC4)cc2)C(=O)NC3=O)c1` [Example 693, 4-{[4-(4-Methyl-piperazin-1-yl)-phenylamino]-methylene}-6-m-tolyl-4H-isoquinoline-1,3-dione], the IC50 was 25.7 µM. Consider `Cc1ccccc1-c1ccc2c(c1)C(=CNc1ccc(N3CCN(C)CC3)cc1)C(=O)NC2=O` [Example 694, 4-{[4-(4-Methyl-piperazin-1-yl)-phenylamino]-methylene}-6-o-tolyl-4H-isoquinoline-1,3-dione], for which the IC50 came to 32.3 µM.

Consider `CN1CCN(c2ccc(NC=C3C(=O)NC(=O)c4ccc(-c5cccc(C#N)c5)cc43)cc2)CC1` [Example 695, 3-(4-{[4-(4-Methyl-piperazin-1-yl)-phenylamino]-methylene}-1,3-dioxo-1,2,3,4-tetrahydro-isoquinolin-6-yl)-benzonitrile], for which the IC50 came out at 14.3 µM. Regarding `CN1CCN(c2ccc(NC=C3C(=O)NC(=O)c4ccc(-c5ccc(-c6ccccc6)cc5)cc43)cc2)CC1` [Example 696, 6-Biphenyl-4-yl-4-{[4-(4-methyl-piperazin-1-yl)-phenylamino]-methylene}-4H-isoquinoline-1,3-dione], the half-maximal inhibitory concentration (IC50) was found to be 27.3 µM. For the compound `CN1CCN(c2ccc(NC=C3C(=O)NC(=O)c4ccc(-c5cccc(-c6ccccc6)c5)cc43)cc2)CC1` [Example 697, 6-Biphenyl-3-yl-4-{[4-(4-methyl-piperazin-1-yl)-phenylamino]-methylene}-4H-isoquinoline-1,3-dione], the IC50 turned out to be 48.6 µM.

Regarding `CSc1ccc(-c2ccc3c(c2)C(=CNc2ccc(N4CCN(C)CC4)cc2)C(=O)NC3=O)cc1` [Example 700, 4-{[4-(4-Methyl-piperazin-1-yl)-phenylamino]-methylene}-6-(4-methylsulfanyl-phenyl)-4H-isoquinoline-1,3-dione], the IC50 was 45 µM. In the case of `COc1cccc(-c2ccc3c(c2)C(=CNc2ccc(CC#N)cc2)C(=O)NC3=O)c1` [Example 702, (4-{[6-(3-Methoxy-phenyl)-1,3-dioxo-2,3-dihydro-1H-isoquinolin-4-ylidenemethyl]-amino}-phenyl)-acetonitrile], the IC50 is 20.9 µM. With `COc1ccccc1-c1ccc2c(c1)C(=CNc1ccc(CC#N)cc1)C(=O)NC2=O` [Example 703, (4-{[6-(2-Methoxy-phenyl)-1,3-dioxo-2,3-dihydro-1H-isoquinolin-4-ylidenemethyl]-amino}-phenyl)-acetonitrile], the IC50 came out at 18.5 µM. For `N#CCc1ccc(NC=C2C(=O)NC(=O)c3ccc(-c4cccc(F)c4)cc32)cc1` [Example 705, (4-{[6-(3-Fluoro-phenyl)-1,3-dioxo-2,3-dihydro-1H-isoquinolin-4-ylidenemethyl]-amino}-phenyl)-acetonitrile] the value was 12.6 µM; for `N#CCc1ccc(NC=C2C(=O)NC(=O)c3ccc(-c4ccc(C(=O)O)cc4)cc32)cc1` [Example 707, 4-{4-[(4-Cyanomethyl-phenylamino)-methylene]-1,3-dioxo-1,2,3,4-tetrahydro-isoquinolin-6-yl}-benzoic acid], 3.8 µM. Regarding `N#CCc1ccc(NC=C2C(=O)NC(=O)c3ccc(-c4cccc(C(=O)O)c4)cc32)cc1` [Example 708, 3-{4-[(4-Cyanomethyl-phenylamino)-methylene]-1,3-dioxo-1,2,3,4-tetrahydro-isoquinolin-6-yl}-benzoic acid], the IC50 stood at 10 µM. For the compound `N#CCc1ccc(NC=C2C(=O)NC(=O)c3ccc(-c4ccc(C(F)(F)F)cc4)cc32)cc1` [Example 709, (4-{[1,3-Dioxo-6-(4-trifluoromethyl-phenyl)-2,3-dihydro-1H-isoquinolin-4-ylidenemethyl]-amino}-phenyl)-acetonitrile], the half-maximal inhibitory concentration (IC50) turned out to be 38.6 µM.

On to `CC(=O)c1ccc(-c2ccc3c(c2)C(=CNc2ccc(CC#N)cc2)C(=O)NC3=O)cc1` [Example 710, (4-{[6-(4-Acetyl-phenyl)-1,3-dioxo-2,3-dihydro-1H-isoquinolin-4-ylidenemethyl]-amino}-phenyl)-acetonitrile], for which the IC50 is 28 µM. For the compound `N#CCc1ccc(NC=C2C(=O)NC(=O)c3ccc(-c4ccc(Cl)cc4)cc32)cc1` [Example 712, (4-{[6-(4-Chloro-phenyl)-1,3-dioxo-2,3-dihydro-1H-isoquinolin-4-ylidenemethyl]-amino}-phenyl)-acetonitrile], the IC50 was 7.9 µM.

Consider `N#CCc1ccc(NC=C2C(=O)NC(=O)c3ccc(-c4cccc(Cl)c4)cc32)cc1` [Example 713, (4-{[6-(3-Chloro-phenyl)-1,3-dioxo-2,3-dihydro-1H-isoquinolin-4-ylidenemethyl]-amino}-phenyl)-acetonitrile], for which the IC50 was found to be 12.8 µM. For `Cc1ccccc1-c1ccc2c(c1)C(=CNc1ccc(CC#N)cc1)C(=O)NC2=O` [Example 717, {4-[(1,3-Dioxo-6-o-tolyl-2,3-dihydro-1H-isoquinolin-4-ylidenemethyl)-amino]-phenyl}-acetonitrile] the value was 13.3 µM; for `N#CCc1ccc(NC=C2C(=O)NC(=O)c3ccc(-c4ccc(C#N)cc4)cc32)cc1` [Example 718, 4-{4-[(4-Cyanomethyl-phenylamino)-methylene]-1,3-dioxo-1,2,3,4-tetrahydro-isoquinolin-6-yl}-benzonitrile], 8.2 µM. For the compound `N#CCc1ccc(NC=C2C(=O)NC(=O)c3ccc(-c4cccc(C#N)c4)cc32)cc1` [Example 719, 3-{4-[(4-Cyanomethyl-phenylamino)-methylene]-1,3-dioxo-1,2,3,4-tetrahydro-isoquinolin-6-yl}-benzonitrile], the IC50 turned out to be 27.5 µM.

On to `N#CCc1ccc(NC=C2C(=O)NC(=O)c3ccc(-c4ccc(-c5ccccc5)cc4)cc32)cc1` [Example 720, {4-[(6-Biphenyl-4-yl-1,3-dioxo-2,3-dihydro-1H-isoquinolin-4-ylidenemethyl)-amino]-phenyl}-acetonitrile], for which the IC50 came to 21.7 µM. For `N#CCc1ccc(NC=C2C(=O)NC(=O)c3ccc(-c4cccc(-c5ccccc5)c4)cc32)cc1` [Example 721, {4-[(6-Biphenyl-3-yl-1,3-dioxo-2,3-dihydro-1H-isoquinolin-4-ylidenemethyl)-amino]-phenyl}-acetonitrile] the value was 25.9 µM. Regarding `CC(C)c1ccc(-c2ccc3c(c2)C(=CNc2ccc(CC#N)cc2)C(=O)NC3=O)cc1` [Example 722, (4-{[6-(4-Isopropyl-phenyl)-1,3-dioxo-2,3-dihydro-1H-isoquinolin-4-ylidenemethyl]-amino}-phenyl)-acetonitrile], the IC50 worked out at 25.3 µM. Under `CSc1ccc(-c2ccc3c(c2)C(=CNc2ccc(CC#N)cc2)C(=O)NC3=O)cc1` [Example 723, (4-{[6-(4-Methylsulfanyl-phenyl)-1,3-dioxo-2,3-dihydro-1H-isoquinolin-4-ylidenemethyl]-amino}-phenyl)-acetonitrile] stands 12.2 µM; under `CN1CCN(c2ccc(NC=C3C(=O)NC(=O)c4ccc(C=Cc5ccc(Cl)cc5)cc43)cc2)CC1` [Example 726, 6-[2-(4-Chloro-phenyl)-vinyl]-4-{[4-(4-methyl-piperazin-1-yl)-phenylamino]-methylene}-4H-isoquinoline-1,3-dione], 16.9 µM; under `CN1CCN(c2ccc(NC=C3C(=O)NC(=O)c4ccc(C=Cc5ccc(C(=O)O)cc5)cc43)cc2)CC1` [Example 727, 4-[2-(4-{[4-(4-Methyl-piperazin-1-yl)-phenylamino]-methylene}-1,3-dioxo-1,2,3,4-tetrahydro-isoquinolin-6-yl)-vinyl]-benzoic acid], 20.4 µM.

For `COc1ccc(C=Cc2ccc3c(c2)C(=CNc2ccc(N4CCN(C)CC4)cc2)C(=O)NC3=O)cc1` [Example 732, 6-[2-(4-Methoxy-phenyl)-vinyl]-4-{[4-(4-methyl-piperazin-1-yl)-phenylamino]-methylene}-4H-isoquinoline-1,3-dione], the 50% inhibitory concentration (IC50) is 25.8 µM. For `COc1ccc(CNC=C2C(=O)NC(=O)c3ccc(C=Cn4ccnc4)cc32)cc1O` [Example 733, 4-[(3-Hydroxy-4-methoxy-benzylamino)-methylene]-6-(2-imidazol-1-yl-vinyl)-4H-isoquinoline-1,3-dione], the IC50 was 0.01 µM. Under `NS(=O)(=O)c1ccc(CNC=C2C(=O)NC(=O)c3ccc(-c4ccc(C(=O)O)cc4)cc32)cc1` [Example 741, 4-{1,3-Dioxo-4-[(4-sulfamoyl-benzylamino)-methylene]-1,2,3,4-tetrahydro-isoquinolin-6-yl}-benzoic acid] stands 2.3 µM.

Consider `NS(=O)(=O)c1ccc(CNC=C2C(=O)NC(=O)c3ccc(-c4cccc(C(=O)O)c4)cc32)cc1` [Example 742, 3-{1,3-Dioxo-4-[(4-sulfamoyl-benzylamino)-methylene]-1,2,3,4-tetrahydro-isoquinolin-6-yl}-benzoic acid], for which the half-maximal inhibitory concentration (IC50) is 13.8 µM. `NS(=O)(=O)c1ccc(CNC=C2C(=O)NC(=O)c3ccc(-c4ccc(C(F)(F)F)cc4)cc32)cc1` [Example 743, 4-({[1,3-Dioxo-6-(4-trifluoromethyl-phenyl)-2,3-dihydro-1H-isoquinolin-4-ylidenemethyl]-amino}-methyl)-benzenesulfonamide]: the half-maximal inhibitory concentration (IC50) was determined as 11.3 µM. Turning to `NS(=O)(=O)c1ccc(CNC=C2C(=O)NC(=O)c3ccc(-c4cccc(C(F)(F)F)c4)cc32)cc1` [Example 744, 4-({[1,3-Dioxo-6-(3-trifluoromethyl-phenyl)-2,3-dihydro-1H-isoquinolin-4-ylidenemethyl]-amino}-methyl)-benzenesulfonamide], the IC50 was 48.6 µM.

Source of the values: US7713994B2 (Wyeth LLC, priority 2005, dated 2010).
